Assay results taken from US4533664A, “Antithrombotic N-(6-chloro-pyrazin-2-yl)-4-Hydroxy-2H-1,2-benzothiazine-3-carboxamide-1 ,1-dioxide derivatives, composition, and method of use” (Dr. Karl Thomae Gesellschaft mit beschrankter Haftung, priority 1982, dated 1985).
Where a name gives a salt, the structure may show the parent alone. Read-outs that look alike come from different tables or passages of the source.

Assays:
[1] = system: collagen-induced aggregation (platelet-rich plasma); assay: Born test, rat ex vivo, collagen-induced aggregation; type: in vivo; conditions: 1 hour after administration, optical density
Experimental: (b) Born test, rat ex vivo, collagen-induced aggregation
The following forms were tested:
The test compound was administered by esophageal tube in the form of an aqueous solution or, in the case of compound A in the form of a tylose suspension, to conscious rats weighing about 450 g. After 1 hour, blood was taken from the abdominal aorta of the animals (which had previously been anesthetized with pentobarbital sodium). The platelet-rich plasma obtained by centrifuging was pooled. The controls were three animals which had not been given any of the test compound. The method of taking blood and preparing the plasma was the same for both groups. The anticoagulant used was 2% sodium citrate in a volume ratio of 1+9.
All the testing was carried out one hour after the administration of the test compound.

[2] = Determination of acute toxicity; type: in vivo; conditions: mouse, in vivo; oral, mice; printed ">>1000 mg/kg"
Experimental: (§1) (d) Determination of acute toxicity
(§2) The acute toxicity was determined after oral administration to male and female mice. The compounds were administered as a suspension in tylose.
(§3) The following table indicates the number of animals which died within 1, 7 and 14 days after receiving the doses stated: […]

mice = assay: Determination of acute toxicity; type: in vivo
Experimental: as §1, §2, §3

rat = assay: edema test (antiphlogistic effect); type: in vivo; conditions: for powerful antiphlogistic effect, dose range: p.o. in the rat (edema test)
[3] = system: collagen-induced thrombocyte aggregation; assay: Born test, collagen-induced aggregation (platelet-rich plasma); type: cell-based, human (healthy test subjects); conditions: for inhibition at 10 µM: 10^-5 Mol/l; for inhibition at 1 µM: 10^-6 Mol/l
Experimental: The compounds were tested for their inhibiting effects in blood platelet aggregation induced by collagen and their effect of prolonging the bleeding time in mice. The compounds were also tested for their acute toxicity.
(a) Born test, collagen-induced aggregation
The thrombocyte aggregation was measured on platelet-rich plasma from healthy test subjects using the method of BORN and CROSS (J. Physiol. 170, 397 [1964]). The decrease in optical density of the platelet suspensions after the addition of collagen was measured photometrically and recorded. The rate of aggregation was deduced from the angle of inclination of the density curve. The point on the curve at which there is maximum light transmittance was used to calculate the "optical density". The quantity of collagen was selected so as to obtain an irreversible control curve.
The figures given refer to the optical density and indicate the percentage change in light transmittance (=% attenuation of aggregation) under the effect of the test substance, compared with the control.
Standard commercial collagen made by Hormon-Chemie of Munich was used.

stomach of the rat = assay: ulcerogenic effect on the stomach of the rat; type: in vivo
bleeding time in mice = assay: Determination of the bleeding time in mice (method of DUKE); type: in vivo, mouse (NMRI Biberach)
Experimental: (c) Determination of the bleeding time in mice
The bleeding time was measured on unanesthetized female mice weighing from 20 to 25 g by the method of DUKE (J. Amer. Med. Assoc.) 15, 1187, 1910). About 0.5 mm of the tip of the animals' tail was cut off, and the blood escaping was carefully wiped away with a strip of filter paper at 30 second intervals. The number of drops of blood thus obtained provided a measurement of the bleeding time. The normal bleeding time in mice is 4.1 minutes on average.
Strain of animals: NMRI Biberach
Number of animals per test: 5
The test compound was administered by esophageal tube one hour before the measurement.

[4] = 250 mg/kg oral, of 10 animals (A) or 5 animals (B, Y, Z)
[5] = 1000 mg/kg oral, of 10 animals (A) or 5 animals (B)
[6] = Homo sapiens, optical density, read-out: BORN test [= % reduction in aggregation]
[7] = Homo sapiens, Table I, read-out: IC50 (50% reduction in aggregation)
[8] = Homo sapiens, as stated in text on Table I, read-out: concentration giving a 50% reduction in aggregation

In the case of `CN1C(C(=O)Nc2cncc(Cl)n2)=C(O)c2ccccc2S1(=O)=O` [C, Sodium salt of N-(6-chloro-pyrazin-2-yl)-4-hydroxy-2-methyl-2H-1,2-benzothiazine-3-carboxamide-1,1-dioxide], the “percentage inhibition of aggregation” value ([1]; 0.0125 mg/kg p.o.) is reported as 0%, the “percentage inhibition of aggregation” value ([1]; 0.025 mg/kg p.o.) is reported as 32% and the “percentage inhibition of aggregation” value ([1]; 0.05 mg/kg p.o.) is reported as 96%. The “percentage inhibition of aggregation” value ([1]; 0.125 mg/kg p.o.) was 100%, the “percentage inhibition of aggregation” value ([1]; 0.25 mg/kg p.o.) was 100% and the “percentage inhibition of aggregation” value ([1]; 0.5 mg/kg p.o.) was 100%.

In the case of `CN1C(C(=O)Nc2cncc(Cl)n2)=C(O)c2ccccc2S1(=O)=O` [Compound A, N-(6-Chloro-pyrazin-2-yl)-4-hydroxy-2-methyl-2H-1,2-benzothiazine-3-carboxamide-1,1-dioxide], the “percentage inhibition of aggregation” value ([1]; 0.125 mg/kg p.o.) is reported as 14%, the inhibition at 0.25 mg/kg ([1]; Rattus norvegicus, po, 1 h, 0.25 mg/kg p.o., read-out: percentage inhibition of aggregation) is reported as 93% and the inhibition at 0.5 mg/kg ([1]; Rattus norvegicus, po, 1 h, 0.5 mg/kg p.o., read-out: percentage inhibition of aggregation) is reported as 86%. The LD50 at 336 h [2] was > 1000 mg/kg, the “Animals which died during the observation period, 1 day” value (mice; [4]) was 0 and the “Animals which died during the observation period, 7 days” value (mice; [4]) was 0. For the same compound, the “Animals which died during the observation period, 14 days” value (mice; [4]) was 0, the “Animals which died during the observation period, 1 day” value (mice; [5]) was 0 and the “Animals which died during the observation period, 7 days” value (mice; [5]) was 0. For the same compound, the “Animals which died during the observation period, 14 days” value (mice; [5]) was 0, the ED35 (rat; Rattus norvegicus, po, edema test) was > 200 mg/kg and the antiphlogistic effect (rat; edema test) was “no antiphlogistic effect”. The inhibition at 10 µM [3, 6] was 95%, the inhibition at 1 µM [3, 6] was 71% and the inhibition at 0.1 µM ([3]; Homo sapiens, 10^-7 Mol/l, optical density, read-out: BORN test [= % reduction in aggregation]) was 6%. The IC50 [3, 7] was 470 nM, the “concentration leading to a 50% reduction compared with prior art compounds Y and Z” value ([3]; comparison with Y and Z) was “about one tenth power lower” and the ulcerogenic effect (stomach of the rat) was “no ulcerogenic effect up to 100 mg/kg”.

In the case of `CN1C(C(=O)Nc2cncc(Cl)n2)=C(O)c2ccccc2S1(=O)=O` [Compound B, Potassium salt of N-(6-chloro-pyrazin-2-yl)-4-hydroxy-2-methyl-2H-1,2-benzothiazine-3-carboxamide-1,1-dioxide], the “percentage inhibition of aggregation” value ([1]; 0.0125 mg/kg p.o.) is reported as 26%, the “percentage inhibition of aggregation” value ([1]; 0.025 mg/kg p.o.) is reported as 86% and the “percentage inhibition of aggregation” value ([1]; 0.05 mg/kg p.o.) is reported as 100%. For the same compound, the “Animals which died during the observation period, 1 day” value (mice; [4]) was 0, the “Animals which died during the observation period, 7 days” value (mice; [4]) was 0 and the “Animals which died during the observation period, 14 days” value (mice; [4]) was 0. For the same compound, the “Animals which died during the observation period, 1 day” value (mice; [5]) was 0, the “Animals which died during the observation period, 7 days” value (mice; [5]) was 1 and the “Animals which died during the observation period, 14 days” value (mice; [5]) was 1.

For `CN1C(C(=O)Nc2cncc(Cl)n2)=C(O)c2ccccc2S1(=O)=O` [D, Tetramethylammonium salt of N-(6-chloro-pyrazin-2-yl)-4-hydroxy-2-methyl-2H-1,2-benzothiazine-3-carboxamide-1,1-dioxide], the “percentage inhibition of aggregation” value ([1]; 0.0125 mg/kg p.o.) was 27%, the “percentage inhibition of aggregation” value ([1]; 0.025 mg/kg p.o.) was 20% and the “percentage inhibition of aggregation” value ([1]; 0.05 mg/kg p.o.) was 97%.

In the case of `CN1C(C(=O)Nc2cncc(Cl)n2)=C(O)c2ccccc2S1(=O)=O` [E, Ethanolamine salt of N-(6-chloropyrazin-2-yl)-4-hydroxy-2-methyl-2H-1,2-benzothiazine-3-carboxamide-1,1-dioxide], the “percentage inhibition of aggregation” value ([1]; 0.0125 mg/kg p.o.) is reported as 10%, the “percentage inhibition of aggregation” value ([1]; 0.025 mg/kg p.o.) is reported as 53% and the “percentage inhibition of aggregation” value ([1]; 0.05 mg/kg p.o.) is reported as 87%.

In the case of `CN1C(C(=O)Nc2cncc(Cl)n2)=C(O)c2ccccc2S1(=O)=O` [F, Calcium salt of N-(6-chloro-pyrazin-2-yl)-4-hydroxy-2-methyl-2H-1,2-benzothiazine-3-carboxamide-1,1-dioxide], the “percentage inhibition of aggregation” value ([1]; 0.0125 mg/kg p.o.) is reported as 27%, the “percentage inhibition of aggregation” value ([1]; 0.025 mg/kg p.o.) is reported as 64% and the “percentage inhibition of aggregation” value ([1]; 0.05 mg/kg p.o.) is reported as 77%.

With `CN1C(C(=O)Nc2cncc(Cl)n2)=C(O)c2ccccc2S1(=O)=O` [G, Ammonium salt of N-(6-chloro-pyrazin-2-yl)-4-hydroxy-2-methyl-2H-1,2-benzothiazine-3-carboxamide-1,1-dioxide] the “percentage inhibition of aggregation” value ([1]; 0.0125 mg/kg p.o.) was 7%, the “percentage inhibition of aggregation” value ([1]; 0.025 mg/kg p.o.) was 36% and the “percentage inhibition of aggregation” value ([1]; 0.05 mg/kg p.o.) was 92%.

In the case of `CN1C(C(=O)Nc2ccccn2)=C(O)c2ccccc2S1(=O)=O` [Y, 4-hydroxy-2-methyl-N-(2-pyridyl)-2H-1,2-benzothiazine-3-carboxamide-1,1-dioxide], the “Animals which died during the observation period, 1 day” value (mice; [4]) is reported as 0, the “Animals which died during the observation period, 7 days” value (mice; [4]) is reported as 3 and the “Animals which died during the observation period, 14 days” value (mice; [4]) is reported as 3. For the same compound, the “powerful antiphlogistic effect, dose range” value (rat) was 1 to 5 mg/kg, the inhibition at 10 µM [3, 6] was 85% and the inhibition at 1 µM [3, 6] was 39%. The IC50 [3, 7] was 2000 nM, the IC50 [3, 8] was 2000 nM and the side effects (bleeding time in mice; 10 mg/kg) was “already show side effects”. For the same compound, the ulcerogenic effect (stomach of the rat) was “strong ulcerogenic effect”.

For `CN1C(C(=O)Nc2cnccn2)=C(O)c2ccccc2S1(=O)=O` [Z, 4-hydroxy-2-methyl-N-(2-pyrazinyl)-2H-1,2-benzothiazine-3-carboxamide-1,1-dioxide], the “Animals which died during the observation period, 1 day” value (mice; [4]) was 1, the “Animals which died during the observation period, 7 days” value (mice; [4]) was 4 and the “Animals which died during the observation period, 14 days” value (mice; [4]) was 4. For the same compound, the “powerful antiphlogistic effect, dose range” value (rat) was 1 to 5 mg/kg, the inhibition at 10 µM [3, 6] was 15% and the IC50 [3, 7] was > 10000 nM. For the same compound, the IC50 [3, 8] was > 10000 nM, the “Prolongation of bleeding time” value (bleeding time in mice; 10 mg/kg by esophageal tube, one hour before the measurement) was “+62%” and the ulcerogenic effect (stomach of the rat) was “strong ulcerogenic effect”.
